Assay results published in paper PMC5964349, “A Single-Domain Response Regulator Functions as an Integrating Hub To Coordinate General Stress Response and Development in Alphaproteobacteria” (mBio, 2018).

Columns and labels:
Test in all cases: autophosphorylation, SDS-PAGE autoradiography
Format in all cases: biochemical
[1] = biological target: T1, CC3170 (Caulobacter vibrioides, UniProt Q9A3N2); settings: 500 µM ATP with [γ-32P]ATP; 5 mM MgCl2, pH 8.0, room temperature, 30 min; labelled compound
T1 construct: gene CC_3170; recombinant from E. coli BL21, Ni-NTA purified
T1 sequence (Q9A3N2 1-473): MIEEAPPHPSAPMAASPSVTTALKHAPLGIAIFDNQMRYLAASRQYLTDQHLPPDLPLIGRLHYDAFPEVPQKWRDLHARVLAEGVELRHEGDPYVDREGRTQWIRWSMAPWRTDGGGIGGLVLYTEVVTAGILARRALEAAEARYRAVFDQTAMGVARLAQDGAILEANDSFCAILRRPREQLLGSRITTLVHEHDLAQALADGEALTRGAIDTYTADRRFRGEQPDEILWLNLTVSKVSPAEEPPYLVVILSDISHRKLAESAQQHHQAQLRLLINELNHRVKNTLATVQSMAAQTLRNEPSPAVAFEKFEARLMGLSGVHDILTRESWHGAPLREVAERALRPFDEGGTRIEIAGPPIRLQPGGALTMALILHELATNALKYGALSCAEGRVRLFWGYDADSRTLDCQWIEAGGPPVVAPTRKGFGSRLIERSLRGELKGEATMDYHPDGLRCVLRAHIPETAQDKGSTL

[2] = biological target: T2, CC2554 (Caulobacter vibrioides, UniProt Q9A599); settings: 500 µM ATP with [γ-32P]ATP; 5 mM MgCl2, pH 8.0, room temperature, 15 min; labelled compound
T2 construct: gene CC_2554; recombinant from E. coli BL21, Ni-NTA purified
T2 sequence (Q9A599 1-338): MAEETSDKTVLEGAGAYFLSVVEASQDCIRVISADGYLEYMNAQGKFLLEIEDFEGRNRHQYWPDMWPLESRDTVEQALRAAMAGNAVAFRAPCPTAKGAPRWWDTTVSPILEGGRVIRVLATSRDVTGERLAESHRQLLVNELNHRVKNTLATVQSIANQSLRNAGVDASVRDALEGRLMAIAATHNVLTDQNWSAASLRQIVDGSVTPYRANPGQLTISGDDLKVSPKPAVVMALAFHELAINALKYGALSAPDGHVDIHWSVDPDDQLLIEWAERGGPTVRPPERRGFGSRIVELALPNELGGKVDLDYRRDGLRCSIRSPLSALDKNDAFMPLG

[3] = biological target: T3, CC3058 (Caulobacter vibrioides, UniProt Q9A3Z2); settings: 500 µM ATP with [γ-32P]ATP; 5 mM MgCl2, pH 8.0, room temperature, 30 min; labelled compound
T3 construct: gene CC_3058; recombinant from E. coli BL21, Ni-NTA purified
T3 sequence (Q9A3Z2 1-465): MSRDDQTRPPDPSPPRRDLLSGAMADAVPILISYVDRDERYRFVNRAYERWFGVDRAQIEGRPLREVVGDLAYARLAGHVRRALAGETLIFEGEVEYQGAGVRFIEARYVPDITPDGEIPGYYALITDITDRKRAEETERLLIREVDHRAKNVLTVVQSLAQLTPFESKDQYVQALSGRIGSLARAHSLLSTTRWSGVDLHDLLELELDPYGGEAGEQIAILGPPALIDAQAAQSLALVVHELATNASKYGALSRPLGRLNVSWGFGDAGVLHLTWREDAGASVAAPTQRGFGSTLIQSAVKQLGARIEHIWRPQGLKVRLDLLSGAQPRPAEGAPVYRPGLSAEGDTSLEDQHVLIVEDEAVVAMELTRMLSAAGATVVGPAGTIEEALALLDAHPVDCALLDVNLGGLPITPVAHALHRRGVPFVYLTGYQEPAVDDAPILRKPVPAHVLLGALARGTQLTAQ

[4] = biological target: T4, CC1683 (Caulobacter vibrioides, UniProt Q9A7N7); settings: 500 µM ATP with [γ-32P]ATP; 5 mM MgCl2, pH 8.0, room temperature, 30 min; labelled compound
T4 construct: gene CC_1683; recombinant from E. coli BL21, Ni-NTA purified
T4 sequence (Q9A7N7 1-555): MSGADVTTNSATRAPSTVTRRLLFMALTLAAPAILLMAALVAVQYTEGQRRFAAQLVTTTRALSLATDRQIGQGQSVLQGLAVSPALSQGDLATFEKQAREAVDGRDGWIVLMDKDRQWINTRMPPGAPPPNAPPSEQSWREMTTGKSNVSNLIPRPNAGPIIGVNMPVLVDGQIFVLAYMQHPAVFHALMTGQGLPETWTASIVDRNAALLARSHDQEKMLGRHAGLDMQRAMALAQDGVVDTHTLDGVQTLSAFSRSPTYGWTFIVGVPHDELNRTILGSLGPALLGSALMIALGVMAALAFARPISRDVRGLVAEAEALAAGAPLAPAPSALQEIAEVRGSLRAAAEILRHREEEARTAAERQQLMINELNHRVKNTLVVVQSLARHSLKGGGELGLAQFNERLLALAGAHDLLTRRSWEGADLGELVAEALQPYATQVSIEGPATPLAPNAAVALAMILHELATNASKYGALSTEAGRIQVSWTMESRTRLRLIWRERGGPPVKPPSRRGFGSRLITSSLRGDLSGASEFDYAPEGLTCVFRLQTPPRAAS

[5] = biological target: T5, CC2874 (Caulobacter vibrioides, UniProt Q9A4G0); settings: 500 µM ATP with [γ-32P]ATP; 5 mM MgCl2, pH 8.0, room temperature, 15 min; labelled compound
T5 construct: gene CC_2874; recombinant from E. coli BL21, MBP-tagged (partly cleaved), Ni-NTA purified
T5 sequence (Q9A4G0 1-794): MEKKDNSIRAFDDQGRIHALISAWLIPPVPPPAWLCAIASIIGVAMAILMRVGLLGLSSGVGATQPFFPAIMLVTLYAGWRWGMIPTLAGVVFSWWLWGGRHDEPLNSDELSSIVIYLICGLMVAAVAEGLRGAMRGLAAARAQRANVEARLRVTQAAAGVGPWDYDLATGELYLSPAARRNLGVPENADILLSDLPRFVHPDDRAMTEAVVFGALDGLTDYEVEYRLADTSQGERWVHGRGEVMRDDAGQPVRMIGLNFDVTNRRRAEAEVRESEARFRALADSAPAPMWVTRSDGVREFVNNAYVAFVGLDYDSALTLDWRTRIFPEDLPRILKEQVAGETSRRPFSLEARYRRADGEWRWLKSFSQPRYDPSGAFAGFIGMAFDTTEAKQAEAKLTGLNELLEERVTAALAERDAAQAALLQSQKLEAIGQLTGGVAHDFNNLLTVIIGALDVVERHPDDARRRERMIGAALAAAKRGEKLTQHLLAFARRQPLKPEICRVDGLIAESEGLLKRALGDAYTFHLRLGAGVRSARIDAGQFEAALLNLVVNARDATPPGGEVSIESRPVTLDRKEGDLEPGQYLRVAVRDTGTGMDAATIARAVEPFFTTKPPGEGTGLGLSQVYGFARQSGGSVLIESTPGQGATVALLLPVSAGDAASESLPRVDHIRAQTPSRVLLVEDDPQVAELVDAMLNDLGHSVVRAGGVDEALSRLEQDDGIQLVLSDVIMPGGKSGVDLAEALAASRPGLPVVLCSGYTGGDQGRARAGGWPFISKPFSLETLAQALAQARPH

[6] = biological target: T6, CC0836 (Caulobacter vibrioides, UniProt Q9A9X5); settings: 500 µM ATP with [γ-32P]ATP; 5 mM MgCl2, pH 8.0, room temperature, 30 min; labelled compound
T6 construct: gene CC_0836; recombinant from E. coli BL21, Ni-NTA purified
T6 sequence (Q9A9X5 1-754): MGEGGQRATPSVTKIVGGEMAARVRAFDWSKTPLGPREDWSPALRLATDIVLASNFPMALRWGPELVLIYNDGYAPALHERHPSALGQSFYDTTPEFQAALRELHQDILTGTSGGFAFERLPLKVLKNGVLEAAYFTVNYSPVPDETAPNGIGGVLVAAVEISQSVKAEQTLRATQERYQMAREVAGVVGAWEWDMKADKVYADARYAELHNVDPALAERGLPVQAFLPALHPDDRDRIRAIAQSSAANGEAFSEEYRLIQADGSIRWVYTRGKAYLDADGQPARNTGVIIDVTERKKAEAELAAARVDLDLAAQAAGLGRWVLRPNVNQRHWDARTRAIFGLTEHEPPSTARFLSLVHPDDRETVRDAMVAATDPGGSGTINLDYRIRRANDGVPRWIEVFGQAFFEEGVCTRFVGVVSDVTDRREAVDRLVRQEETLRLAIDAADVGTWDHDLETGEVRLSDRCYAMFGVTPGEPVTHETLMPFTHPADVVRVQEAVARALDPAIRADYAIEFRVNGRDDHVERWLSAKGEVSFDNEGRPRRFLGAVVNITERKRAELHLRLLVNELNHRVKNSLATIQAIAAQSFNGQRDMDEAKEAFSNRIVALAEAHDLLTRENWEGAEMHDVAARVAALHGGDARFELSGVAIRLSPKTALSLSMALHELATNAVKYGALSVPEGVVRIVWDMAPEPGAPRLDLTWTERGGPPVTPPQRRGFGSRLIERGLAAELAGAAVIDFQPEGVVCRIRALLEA

[7] = biological target: T7, CC2874 lacking its C-terminal receiver domain (ΔREC) (Caulobacter vibrioides, UniProt Q9A4G0); settings: 500 µM ATP with [γ-32P]ATP; 5 mM MgCl2, pH 8.0, room temperature, 15 min; labelled compound
T7 construct: gene CC_2874; recombinant from E. coli BL21, Ni-NTA purified

Nc1ncnc2c1ncn2[C@@H]1O[C@H](COP(=O)(O)OP(=O)(O)OP(=O)(O)O)[C@@H](O)[C@H]1O [ATP]
autophosphorylation, SDS-PAGE autoradiography [1]: Purified kinases CC0836, CC1683, CC3058, and CC3170 were mixed with ATP | autophosphorylation, SDS-PAGE autoradiography [2]: Autophosphorylation of histidine kinases CC2554 (left) and CC2874 (right) and phosphotransfer to MrrA. | autophosphorylation, SDS-PAGE autoradiography [3]: Purified kinases CC0836, CC1683, CC3058, and CC3170 were mixed with ATP | autophosphorylation, SDS-PAGE autoradiography [4]: Purified kinases CC0836, CC1683, CC3058, and CC3170 were mixed with ATP | autophosphorylation, SDS-PAGE autoradiography [5]: Autophosphorylation of histidine kinases CC2554 (left) and CC2874 (right) and phosphotransfer to MrrA. | autophosphorylation, SDS-PAGE autoradiography [6]: Purified kinases CC0836, CC1683, CC3058, and CC3170 were mixed with ATP | autophosphorylation, SDS-PAGE autoradiography [7]: this part of the kinase is not required for autophosphorylation and phosphotransfer to MrrA
